The source of these data is patent US20120122966A1, “USE OF ORGANIC DYES AS ANALGESIC AGENTS” (priority 2009, published 2012).

Holding throughout (format): in vivo, human
Experiment [1] has as its system renal cell carcinoma, lung and bone metastases, excruciating bone pain. Kind of experiment: Example 2: patient T., renal cell carcinoma with lung and bone metastases, bone pain, treated with crystal violet. The method, then: Patient four. Three years ago, the left kidney was removed, and preventive chemotherapy was administered for renal cell carcinoma. In a CT examination, a 2.5×2.4×2.3 cm tumor-like mass in the right kidney projection, three round tumor-like masses from 2.6 to 2.3 cm in diameter in the left lung, and numerous bone metastases. Grave condition, dyspnea, cyanosis, […]. Complaints of excruciating bone pain. […] Treatment prescribed, including the use of an antitumor medicinal preparation. The preparation, crystal violet, was administered by mouth as a potion-16 drops of a 1% solution three times a day, and as microclysters. After 7 days of treatment, dyspnea abated, and the pain syndrome disappeared. Blood tests against the background of treatment have normalized over 3 weeks. Then, the course was repeated using crystal violet preparation which was administered into rectum in the form of 1% suppositories and by inhaling, for 12 months with half-month long breaks. During the therapy the right kidney tumor and lung metastases disappeared. No pain. Weight restored.

The test system of experiment [2] is pancreas head blastoma, pain. Kind of experiment: Example 5: patient Z., pancreas head blastoma with neck lymph node metastases, pain, treated with gentian violet. The source says:
Patient two. […] Started chemotherapy. After three weeks the condition began rapidly deteriorating, accompanied by extreme weight loss—from 95 kg to 72 kg. Pain became considerably more severe. Stomach pain occurs before having a meal, i.e. after having a meal the pain is lower. At the same time stool was lightly yellow—very light color. The patient had been taking an analgesic—ketanol—infrequently, but lately has been taking it two times a day. […] Immediately after the end of the first course of phthorafurum the patient began taking gentian violet preparation, 3 mg per 50 kg of weight two times a day.

The subject of experiment [3] is poorly differentiated pulmonary adenocarcinoma, MTS to the brain and skeleton bones, pain syndrome. Description: Example 1: patient V., pulmonary adenocarcinoma with MTS, pain syndrome, treated with gentian violet. On the procedure: Patient six. Diagnosis: poorly differentiated pulmonary adenocarcinoma. MTS [expansion not given; possibly metastases] to the brain and skeleton bones. Cachexia. Pain syndrome. Relatives state that over the last two months the patient has been receiving 5.0 ml of heroin intravenously three times a day. Otherwise, they note resumption of pronounced excruciating pain. In CT, several tumor-like masses in the mediastinum and left lung, average size 3.9×3.6×3.2 cm. Grave condition, dyspnea, cyanosis, adynamia, and sensations of pain, getting stronger when coughing. Treatment was prescribed that included the use of medicinal preparations with antineoplastic action—an organic dye, a 1% gentian violet solution. The first course of treatment using the preparation—15 drops of a 1% solution in a glass of water three times a day by mouth, additionally a microclyster—10 drops of a 1% solution in 30 ml of water at lunch, and q.h.s. a 1% suppository with the preparation. […] On the third week of treatment with the preparation the patient's condition improved. […] The lung tumor size dropped to 2.1×2.2×2.2 cm. After six months of treatment the tumor size dropped to 0.3×0.4×1.0 cm. […] Blood tests against the background of treatment have normalized.

In experiment [4] the test system is osteoarthrosis pain. Kind of experiment: Example 7: patient T., osteoarthrosis with joint deformation, permanent pain. The method, then: Patient four. Complaints of not being able to raise their right arm above the shoulder level. In CT, effects of osteoarthrosis with joint deformation were noticed. Taking analgesic preparations turned out to be ineffective. Pain became permanent. Gentian violet preparation was prescribed, 0.0004 mg/kg of weight once a day.

The test system of experiment [5] is bladder cancer, metastases in pelvic bones, pain. Description: Example 3: patient L., bladder cancer with pelvic bone metastases, treated with malachite green oxalate. On the procedure: Patient one. Diagnosis: bladder cancer. Metastases in pelvic bones. Three years ago bladderectomy was performed for cancer. Complaints of pain, bloody urine, frequent urination and pelvic bone pains. In CT, a 2×2×2 cm tumor-like mass in the projection of the mouth of the right ureter and a 1.5×1.1×0.9 cm in the projection of the mouth of the left ureter. In the wing of the left illium two tumor-like masses with irregular contours, 1.5 to 2.5 cm in diameter. Medium severity condition, skin integument pallor, blood in urine. […] Began treatment with the preparation—20 drops of a 1% solution of malachite green oxalate in half a glass of water by mouth and in the form of microclysters. […] The course had lasted for 4 months. […] Biphosphonates were prescribed for replacement therapy.

Experiment [6] relates to metastasizing melanoma of the right forearm, metastases to the liver, pain. Description: Example 4: patient D., metastasizing melanoma, treated with malachite green oxalate. The method, then: Patient three. Diagnosis: metastasizing melanoma of the right forearm. Metastases to the liver and right eye. Three years ago melanoma resection was performed. A year and a half later gripes appeared in the right eye. Eye enucleation for metastasis was performed. In the examination of the internal organs, a 4×5×4 cm metastasis in the liver was detected. At the same time, relapse in the surgery area appeared. Complaints of severe pain in the liver and pain in the relapse area. Objectively: medium severity condition, skin integument pallor, a purple tumor-like mass on the right forearm with a 4×5×5 cm pronounced edema. […] Began treatment with the preparation according to the following regimen: 5 ml of a 0.000001% sterile solution of malachite green oxalate was injected under the tumor base. Later, a 2% ointment with the same preparation was applied to the skin surface. Two times a day, 500 mg of malachite green oxalate diluted in 500 ml of saline was administered intravenously. Also, 5 g of malachite green oxalate was diluted in water and administered by mouth, as well as in the form of microclysters. […] The course had continued for 3 months.

Experiment [7] has as its system migraine. Kind of experiment: Example 8: patient O., migraine. The following applies: third day; 2 g in 100 ml of water on an empty stomach two times a day. The method, then:
Patient five.
Complaints of periodic excruciating pain in the right temporal area. Diagnosis: migraine. Prescribed treatment: malachite green oxalate preparation, 2 g dissolved in 100 ml of water on an empty stomach two times a day.

Consider `CN(C)c1ccc(C(=C2C=CC(=[N+](C)C)C=C2)c2ccc(N(C)C)cc2)cc1` [crystal violet], for which, in experiment [1] (after 7 days of treatment), the pain syndrome entry is given as “disappeared”. Besides, the dyspnea entry in experiment [1] (after 7 days, 16 drops of 1% solution by mouth three times a day and microclysters) is recorded as “abated”. In addition, in experiment [1] (after the 12-month course), the pain entry is on record as “No pain” and the weight entry was “restored”. In addition, the “right kidney tumor and lung metastases” value in experiment [1] (during therapy, 1% suppositories and inhaling for 12 months with breaks) is “disappeared”. For the same compound, the blood tests entry in experiment [1] (over 3 weeks) is on record as “normalized”.
In the case of `CN(C)c1ccc(C(=C2C=CC(=[N+](C)C)C=C2)c2ccc(N(C)C)cc2)cc1` [gentian violet], the pain entry in experiment [2] (after 3 days, 3 mg per 50 kg of weight two times a day) is reported as “abated significantly”; in experiment [2] (later than 3 days (then)), “stopped completely”; in experiment [4] (after a week), “disappeared completely”; in experiment [4] (after three days, 0.0004 mg/kg of weight once a day) it was “abated”. Also, the return of pain result in experiment [2] (hereinafter) is “has not returned”. In addition, the brain metastases result in experiment [3] (after six months of treatment) is reported as “No brain metastases are observed”. In addition, the dyspnea result in experiment [3] (after six months of treatment) is reported as “abated”. Besides, the pain syndrome entry in experiment [3] (after six months of treatment) is “practically absent”. In addition, the blood tests entry in experiment [3] (against the background of treatment) is given as “normalized”. The “pain syndrome after the sessions” value in experiment [3] (first week, for several hours after sessions, 1% solution by mouth, microclyster, suppository) is on record as “substantial improvement of the pain syndrome”. In experiment [3] (third week of treatment), the “patient's condition” value was “improved”. Besides, the “MTS in the brain in CT” value in experiment [3] (three months after start of treatment) is “no MTS in the brain were observed”.
As to malachite green oxalate, the “bladder tumor and pelvic metastases” value in experiment [5] (complete course of 6 months) is listed as “disappeared”. The return of pain entry in experiment [5] (complete course of 6 months) and in experiment [6] (complete course of 6 months) was “did not return” each time. In addition, the weight result in experiment [5] (complete course of 6 months) and in experiment [6] (complete course of 6 months) was “restored” each time. Further, the blood tests entry in experiment [5] (fourth week) and in experiment [6] (4th week) was “normalized” in each case. Moreover, the “decrease of pelvic bone metastases” value in experiment [5] (over the 4-month course) is on record as 1.5 cm. For the same compound, the “use of narcotic analgesics by the patient” value is reported as “declined taking narcotic analgesics” in experiment [5] (previously 5.0 ml of morphine three times a day) and “declined taking narcotic analgesics” in experiment [6] (stated after the tenth day, previously 3.0 ml of morphine four times a day). The “pain in the area of metastases” value in experiment [5] (sixth day, 20 drops of 1% solution by mouth and microclysters) is listed as “got duller”; in experiment [5] (tenth day) it was “disappeared completely”; in experiment [6] (sixth day, injection under tumor, 2% ointment, intravenous, by mouth, microclysters), “became duller”; in experiment [6] (tenth day), “disappeared completely”. The “decrease of liver metastasis” value in experiment [6] (during the 3-month course, baseline 4×5×4 cm) is listed as 1.5 cm. For the same compound, in experiment [6] (fifth day after the start of treatment), the “use of narcotics by the patient” value is “declined taking narcotics”. Besides, the pain result in experiment [7] was “abated and has not recurred”.
